Assay results taken from the supplement of paper PMC10307832.

Legend:
Assay in all cases: relative viability (nuclei count vs DMSO), 5 days (fraction); higher = more cells survive
[1] = compound: COc1cc(-c2nn([C@H]3CC[C@H](N4CCN(C(C)=O)CC4)CC3)c3ncnc(N)c23)ccc1NC(=O)c1cc2ccccc2n1C + Cc1cc(Nc2cc(N3CCN(C)CC3)nc(Sc3ccc(NC(=O)C4CC4)cc3)n2)n[nH]1 [Tozasertib] (partner 0.1 µM)
Method in brief: (§1)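 Cells from lung cancer lines were seeded into 1536-well plates and, one day later, dosed by pin tool. Treatments were either a single drug or a fixed dose of an anchor drug with five library-drug doses (not always all listed) in √10 steps. After 5 days, nuclei were stained in a one-step fixation (final 0.05% Triton X-100, 1% formaldehyde, 1 ug/ml Hoechst) and counted on 4× images, and relative viability is the treated-to-vehicle nuclei ratio, as the median of duplicate plates.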

Midostaurin + Luminespib = compound: CO[C@@H]1[C@H](N(C)C(=O)c2ccccc2)C[C@H]2O[C@]1(C)n1c3ccccc3c3c4c(c5c6ccccc6n2c5c31)C(=O)NC4 [Midostaurin] + CCNC(=O)c1noc(-c2cc(C(C)C)c(O)cc2O)c1-c1ccc(CN2CCOCC2)cc1 [Luminespib] (partner 0.01 µM)
Method in brief: as §1

[2] = compound: COc1cc(-c2nn([C@H]3CC[C@H](N4CCN(C(C)=O)CC4)CC3)c3ncnc(N)c23)ccc1NC(=O)c1cc2ccccc2n1C + COc1cccc2cc(-c3nc([C@H]4CC[C@H](C(=O)O)CC4)n4ncnc(N)c34)[nH]c12 [OSI-027] (partner 0.5 µM)
Method in brief: as §1

[3] = compound: COc1cc(-c2nn([C@H]3CC[C@H](N4CCN(C(C)=O)CC4)CC3)c3ncnc(N)c23)ccc1NC(=O)c1cc2ccccc2n1C + Cc1nc(NC(=O)N2CCC[C@H]2C(N)=O)sc1-c1ccnc(C(C)(C)C(F)(F)F)c1 [Alpelisib] (partner 2 µM)
Method in brief: as §1

[4] = compound: COc1cc(-c2nn([C@H]3CC[C@H](N4CCN(C(C)=O)CC4)CC3)c3ncnc(N)c23)ccc1NC(=O)c1cc2ccccc2n1C + O=C(c1cc(Cc2n[nH]c(=O)c3ccccc23)ccc1F)N1CCN(C(=O)C2CC2)CC1 [Olaparib] (partner 8 µM)
Method in brief: as §1

Row | Cell Line | relative viability ([1]; first compound 0.0128 µM) | relative viability ([1]; first compound 0.04048 µM) | relative viability ([1]; first compound 0.128 µM) | relative viability ([1]; first compound 1.28 µM) | relative viability (Midostaurin + Luminespib; first compound 0.01 µM) | relative viability (Midostaurin + Luminespib; first compound 0.03162 µM) | relative viability (Midostaurin + Luminespib; first compound 0.1 µM) | relative viability (Midostaurin + Luminespib; first compound 0.3162 µM) | relative viability ([2]; first compound 0.0128 µM) | relative viability ([2]; first compound 0.04048 µM) | relative viability ([2]; first compound 0.128 µM) | relative viability ([2]; first compound 1.28 µM) | relative viability ([3]; first compound 0.0128 µM) | relative viability ([3]; first compound 0.04048 µM) | relative viability ([3]; first compound 0.128 µM) | relative viability ([3]; first compound 1.28 µM) | relative viability ([4]; first compound 0.0128 µM) | relative viability ([4]; first compound 0.04048 µM) | relative viability ([4]; first compound 0.128 µM) | relative viability ([4]; first compound 1.28 µM)
1 | LOU-NH91 | 0.664 | 0.598 | 0.699 | 0.671 | 0.328 | 0.347 | 0.394 | 0.309 | 0.729 | 0.803 | 0.731 | 0.745 | 0.77 | 0.74 | 0.759 | 0.564 | 0.924 | 1.01 | 0.902 | 0.831
2 | LU99A | 0.281 | 0.28 | 0.274 | 0.252 | 0.268 | 0.221 | 0.228 | 0.291 | 0.307 | 0.323 | 0.329 | 0.312 | 0.464 | 0.565 | 0.534 | 0.521 | 0.284 | 0.29 | 0.286 | 0.263
3 | LXF-289 | 0.219 | 0.217 | 0.17 | 0.0946 | 0.692 | 0.706 | 0.482 | 0.596 | 0.875 | 0.76 | 0.71 | 0.652 | 1.1 | 1.03 | 1.04 | 0.958 | 1.17 | 1.08 | 1.11 | 0.982
4 | NCI-H23 | 0.359 | 0.444 | 0.309 | 0.266 | 0.263 | 0.251 | 0.227 | 0.197 | 0.646 | 0.368 | 0.578 | 0.415 | 0.63 | 0.632 | 0.659 | 0.476 | 0.323 | 0.321 | 0.339 | 0.292
5 | NCI-H322M | 0.509 | 0.472 | 0.445 | 0.341 | 0.826 | 0.829 | 0.969 | 1.23 | 0.584 | 0.509 | 0.5 | 0.526 | 0.801 | 0.844 | 0.681 | 0.741 | 0.818 | 0.801 | 0.693 | 0.691
6 | NCI-H358 | 0.107 | 0.104 | 0.103 | 0.0932 | 0.241 | 0.309 | 0.263 | 0.298 | 0.645 | 0.618 | 0.508 | 0.28 | 0.725 | 0.747 | 0.76 | 0.555 | 0.587 | 0.513 | 0.526 | 0.374
7 | NCI-H441 | 0.743 | 0.734 | 0.565 | 0.578 | 0.379 | 0.358 | 0.429 | 0.351 | 0.637 | 0.531 | 0.763 | 0.702 | 0.762 | 0.985 | 0.556 | 0.576 | 0.554 | 0.51 | 0.622 | 0.624
8 | NCI-H460 | 0.47 | 0.113 | 0.278 | 0.0922 | 0.0367 | 0.0356 | 0.0302 | 0.0369 | 0.609 | 0.584 | 0.623 | 0.395 | 0.386 | 0.59 | 0.57 | 0.378 | 0.48 | 0.47 | 0.312 | 0.386
9 | NCI-H520 | 0.378 | 0.432 | 0.412 | 0.31 | 0.221 | 0.204 | 0.235 | 0.258 | 0.191 | 0.252 | 0.201 | 0.174 | 0.881 | 0.908 | 0.697 | 0.471 | 0.388 | 0.398 | 0.286 | 0.265
10 | NCI-H596 | 0.972 | 1.17 | 0.872 | 0.541 | 1.13 | 1.17 | 0.869 | 1.18 | 0.681 | 0.526 | 0.641 | 0.441 | 0.523 | 0.511 | 0.516 | 0.271 | 0.722 | 0.787 | 0.681 | 0.593
11 | NCI-H647 | 0.219 | 0.262 | 0.194 | 0.141 | 0.191 | 0.181 | 0.141 | 0.264 | 0.594 | 0.656 | 0.617 | 0.435 | 1.03 | 1.18 | 0.945 | 0.429 | 0.646 | 0.567 | 0.514 | 0.373
12 | NCI-H650 | 0.663 | 0.747 | 0.735 | 0.732 | 0.76 | 0.826 | 0.8 | 0.771 | 0.56 | 0.798 | 0.524 | 0.458 | 1.49 | 1.34 | 1.12 | 1.05 | 0.418 | 0.453 | 0.407 | 0.468
13 | NCI-H661 | 0.362 | 0.381 | 0.346 | 0.34 | 0.799 | 0.783 | 0.924 | 1.04 | 0.721 | 0.722 | 0.691 | 0.575 | 0.418 | 0.526 | 0.729 | 0.376 | 0.817 | 0.843 | 0.724 | 0.763
14 | NCI-H727 | 0.65 |  | 0.581 | 0.477 | 0.343 | 0.335 | 0.264 | 0.902 | 0.591 |  | 0.477 | 0.47 | 0.62 |  | 0.454 | 0.405 | 0.674 |  | 0.819 | 0.78
15 | NCI-H838 | 0.287 | 0.289 | 0.322 | 0.209 | 0.32 | 0.362 | 0.322 | 0.299 | 0.38 | 0.375 | 0.422 | 0.359 | 1.03 | 1.01 | 1.01 | 0.664 | 0.799 | 0.807 | 0.741 | 0.471
16 | NCI-H1355 | 0.541 | 0.551 | 0.497 | 0.28 | 0.682 | 0.762 | 0.666 | 0.702 | 0.47 | 0.315 | 0.507 | 0.433 | 0.981 | 0.795 | 0.828 | 0.737 | 0.798 | 0.831 | 0.756 | 0.684
17 | NCI-H1395 | 0.77 | 0.81 | 0.714 | 0.561 | 0.837 | 0.702 | 0.573 | 0.665 | 0.573 | 0.674 | 0.723 | 0.556 | 0.947 | 1.47 | 0.995 | 0.953 | 0.437 | 0.466 | 0.442 | 0.434
18 | NCI-H1437 | 0.393 | 0.437 | 0.387 | 0.277 | 1.02 | 1 | 1.03 | 1.1 | 0.796 | 0.992 | 0.861 | 0.838 | 0.968 | 0.992 | 0.897 | 0.757 | 0.689 | 0.636 | 0.628 | 0.595
19 | NCI-H1651 | 0.616 | 0.769 | 0.635 | 0.37 | 0.905 | 0.731 | 0.664 | 0.66 | 0.664 | 0.748 | 0.531 | 0.644 | 0.965 | 0.941 | 0.911 | 0.862 | 0.19 | 0.177 | 0.205 | 0.165
20 | NCI-H1666 | 0.619 | 0.67 | 0.593 | 0.587 | 0.966 | 0.927 | 0.897 | 0.864 | 0.795 | 0.789 | 0.764 | 0.784 | 0.981 | 0.864 | 0.921 | 0.769 | 0.763 | 0.793 | 0.793 | 0.827
21 | NCI-H1734 | 0.293 | 0.234 | 0.253 | 0.201 | 0.224 | 0.192 | 0.178 | 0.187 | 0.659 | 0.551 | 0.613 | 0.485 | 0.684 | 0.636 | 0.716 | 0.573 | 0.621 | 0.562 | 0.649 | 0.539
22 | NCI-H1755 | 0.617 | 0.604 | 0.534 | 0.546 | 0.418 | 0.47 | 0.247 | 0.443 | 0.829 | 0.644 | 0.676 | 0.662 | 1.04 | 0.992 | 0.884 | 0.656 | 0.888 | 0.922 | 0.832 | 0.863
23 | NCI-H1793 | 0.367 | 0.343 | 0.228 | 0.126 | 0.281 | 0.307 | 0.169 | 0.168 | 0.369 | 0.177 | 0.237 | 0.186 | 0.734 | 0.682 | 0.595 | 0.442 | 0.989 | 1.08 | 0.731 | 0.427
24 | NCI-H1915 | 0.443 | 0.44 | 0.384 | 0.317 | 0.711 | 0.75 | 0.613 | 0.797 | 0.677 | 0.404 | 0.585 | 0.481 | 1.13 | 1.07 | 1.02 | 0.857 | 0.273 | 0.285 | 0.262 | 0.248
25 | NCI-H1944 | 0.265 | 0.257 | 0.24 | 0.196 | 0.764 | 0.872 | 0.67 | 0.773 | 0.457 | 0.332 | 0.412 | 0.353 | 0.827 | 0.879 | 0.784 | 0.506 | 0.431 | 0.409 | 0.444 | 0.331
26 | NCI-H1975 | 0.868 | 0.896 | 0.528 | 0.159 | 0.226 | 0.19 | 0.123 | 0.223 | 0.676 | 0.669 | 0.611 | 0.277 | 0.659 | 0.757 | 0.547 | 0.257 | 0.819 | 0.978 | 0.794 | 0.494
27 | NCI-H1993 | 0.568 | 0.534 | 0.56 | 0.546 | 0.807 | 0.821 | 0.866 | 0.856 | 0.52 | 0.575 | 0.552 | 0.431 | 0.76 | 0.771 | 0.599 | 0.569 | 0.997 | 1.11 | 0.885 | 0.891
